Measured values taken from PMC11413853, “Discovery of VU6007496: Challenges in the Development of an M1 Positive Allosteric Modulator Backup Candidate” (ACS Chemical Neuroscience, 2024).
Like-named read-outs stand apart in the source and are kept apart here.

Assays:
Prostanoid EP4 = experiment: Eurofins radioligand binding; design: species or system Human; details: specific binding
[1] = tested on: 68 GPCRs, ion channels and transporters; experiment: Lead Profiling Screen, radioligand displacement (panel summary); format: binding; details: 10 μM; all 68 targets
Description: In a 4-strain Ames assay, with and without S9, both 11 and 12 were negative.
Table S1. Eurofins Lead Profiling Screen Data
This is a radioligand binding panel of 67 targets including GPCRs, ion channels, transporters and nuclear hormones. Biochemical assay results are presented as the percent inhibition of specific binding at a 10 μM concentration of VU6007496 (Compound 11).
Target/Protein Species % Inhibition at
Androgen (Testosterone) Human -24
Calcium Channel L-Type, Rat 12
Calcium Channel L-Type, Rat -8
Calcium Channel N-Type Rat 8
Epidermal Growth Factor (EGF) Human 5
GABAA, Flunitrazepam, Central Rat -3
GABAA, Muscimol, Central Rat -1
Glutamate, Kainate Rat -19
Glutamate, NMDA, Agonism Rat 0
Glutamate, NMDA, Glycine Rat 0
Glutamate, NMDA, Phencyclidine Rat 7
Imidazoline I2, Central Rat -9

Adrenergic α2A = experiment: Eurofins radioligand binding; design: species or system Human; details: specific binding
Histamine H1 = experiment: Eurofins radioligand binding; design: species or system Human; details: specific binding
Dopamine D4.4 = experiment: Eurofins radioligand binding; design: species or system Human; details: specific binding
[2] = Rat dose escalation study (p.o., 30% captisol); format: in vivo; details: for Cmax: brain, read-out: total brain concentration at Cmax
Description: While awaiting more definitive MET ID studies in multispecies hepatocytes, we elected to perform a rat dose escalation study to assess exposures in a standard, tox-friendly oral vehicle (30% captisol) to lay the foundation for dose range finding/maximum tolerated dose (DRF/MTD) studies. Male Sprague–Dawley rats were dosed with VU6007496 (11) at doses of 3, 10, 30, 100, and 300 mg/kg p.o. in 30% captisol. […]. […] Recall, exposures in rat at the NOR MED were 990 nM total and 39.8 nM unbound brain concentrations, respectively. […]

[3] = tested on: Calcium Channel L-Type, Benzothiazepine; experiment: Eurofins radioligand binding; design: species or system Rat; details: specific binding
Serotonin (5-HT3) = experiment: Eurofins radioligand binding; design: species or system Human; details: specific binding
Thyroid Hormone = experiment: Eurofins radioligand binding; design: species or system Rat; details: specific binding
Purinergic P2X = experiment: Eurofins radioligand binding; design: species or system Rat; details: specific binding
Endothelin ETB = experiment: Eurofins radioligand binding; design: species or system Human; details: specific binding
GABAB1A = experiment: Eurofins radioligand binding; design: species or system Human; details: specific binding
[4] = tested on: Calcium Channel L-Type, Dihydropyridine; experiment: Eurofins radioligand binding; design: species or system Rat; details: specific binding
rats = experiment: Novel object recognition (NOR) test; format: in vivo, rat
Description: Novel Object Recognition Task
Rats were habituated for 10 min for 2 consecutive days in an empty novel object recognition (NOR) arena consisting of dark-colored plexiglass box (40 × 64 × 33 cm3). On day 3, rats were administered vehicle (0.5% natrasol/0.015% Tween80) or M1 PAM (0.1-3 mg/kg, p.o.., 10 mL/kg, n = 15-18) and returned to their home cage for 30 min. Rats were then placed in the NOR arena containing two identical objects for 10 min. Following the exposure period, rats were placed back into their home cages for 24 h. The rats were then returned to the arena in which one of the previously exposed (familiar) objects was replaced by a novel object and were video recorded for 5 min while they explored the two objects. Time spent exploring each object was scored by an observer blinded to the experimental conditions and the recognition index was calculated as [(time spent exploring novel object) – (time spent exploring familiar object)]/total time exploring objects.
Supplemental field electrophysiology methods
Recording pipettes were constructed from thin-walled borosilicate capillary glass tubing (I.D.=1.17 mm, O.D. 1.50 mm; Warner Instruments, Hamden, CT), pulled with a horizontal pipette puller (P-97 Sutter Instrument Co., Novata, CA) to a resistance of 1-3MΩ when filled with ACSF. […]

[5] = Hepatocyte MET ID, monkey; format: in vitro ADME; details: 4-h incubation
Source text: More concerning were the results generated via outsourced multispecies hepatocyte MET ID, which were drastically different than the liver S9MET ID. The extent of metabolism for VU6007496 with rat, dog, monkey and human hepatocytes was 64.7, 51.5, 63.9 and 99.5%, respectively (Figure 8). […] In human hepatocytes, PAM 11 was metabolized primarily to Metabolite A (24), the result of oxidative N-demethylation of the southern pyrazole. The other minor metabolites were oxidation on the tetrahydropyran moiety and included ring opening (Metabolite F, 25).[21]

[6] = Rat satellite PK study, 3 mg/kg p.o.; format: in vivo; details: 3 mg/kg p.o. (NOR MED)
Source text: Historically, our PK/PD for M1 PAMs in NOR has a strong correlation with total brain as opposed to unbound levels, with MEDs typically 0.25 to 0.4 of the rat EC50.[21] This may be due to higher endogenous cholinergic tone in healthy animals, and the in vitro PAM EC50s being derived from an arbitrarily selected EC20 concentration of ACh as a subthreshold value.

Cn1ccc(-c2ccc(Cc3cc(C(=O)NC4CCOCC4)nc4ccn(C)c34)cc2)n1 [compound 11]
% Inhibition at 10 µM (Prostanoid EP4): 16% | radioligand displacement, Lead Profiling Screen [1]: < 50% | % Inhibition at 10 µM (Adrenergic α2A): -7% | % Inhibition at 10 µM (Histamine H1): 5% | % Inhibition at 10 µM (Dopamine D4.4): 1% | Cmax ([2]; male, Sprague-Dawley, po, rat, 100 mg/kg p.o.): 9.1 µM | Cmax ([2]; male, Sprague-Dawley, po, rat, 300 mg/kg p.o.): 17.2 µM | Tmax ([2]; male, Sprague-Dawley, in vivo, po, rat, 3, 10, 30, 100, and 300 mg/kg p.o., all doses): < 2 h | fold over the NOR MED exposure ([2]; rat, 100 mg/kg p.o.): ~9 fold | unbound brain concentration at Cmax ([2]; rat, 100 mg/kg p.o.): 0.298 µM | fold over the NOR MED exposure ([2]; rat, 300 mg/kg p.o.): ~17 fold | unbound brain concentration at Cmax ([2]; rat, 300 mg/kg p.o.): 0.569 µM | adverse cholinergic events ([2]; rat, 100 and 300 mg/kg p.o. dose groups, after 4.5 h): severe adverse cholinergic events | dose proportionality of exposure ([2]; rat, from 3 to 30 mg/kg p.o.): Linear dose escalation | cholinergic toxicity ([2]; rats, 30 mg/kg p.o.): not observed | window from the MED ([2]; rats, 30 mg/kg p.o. vs MED 3 mg/kg): 10 fold | % Inhibition at 10 µM [3]: 12% | % Inhibition at 10 µM (Serotonin (5-HT3)): -3% | % Inhibition at 10 µM (Thyroid Hormone): 2% | % Inhibition at 10 µM (Purinergic P2X): 17% | % Inhibition at 10 µM (Endothelin ETB): -5% | % Inhibition at 10 µM (GABAB1A): 4% | % Inhibition at 10 µM [4]: -8% | effect on recognition memory (NOR) (rats; rats, 0.1, 0.3, 1, and 3 mg/kg p.o., 30 min pretreatment, assessed 24 h later): dose-dependently enhanced recognition memory | minimum effective dose (MED) in novel object recognition (rats; rats, p.o.): 3 mg/kg | extent of metabolism, monkey hepatocytes [5]: 63.9% | total brain concentration [6]: 990 nM | unbound brain concentration [6]: 0.0398 µM
